Test results reported in patent publication US20240307382A1, “MODULATORS OF THE INTEGRATED STRESS PATHWAY” (Calico Life Sciences LLC, priority 2017, published 2024).
pEC50: −log10 of the molar value.

The molecules below were run on HEK293T cells carrying the ATF4 luciferase reporter (assay: ATF4-Luc assay (ATF4 luciferase reporter, tunicamycin-treated cells)). Settings: Homo sapiens, HEK-293T, 1 μg/mL tunicamycin, 7 hours.
Type: cell-based
Procedure: In order to test exemplary compounds of the invention in a cellular context, a stable VWMD cell line was first constructed. The ATF4 reporter was prepared by fusing the human full-length ATF4 5′-UTR (NCBI Accession No. BC022088.2) in front of the firefly luciferase (FLuc) coding sequence lacking the initiator methionine as described in Sidrauski et al (eLife 2013). The construct was used to produce recombinant retroviruses using standard methods and the resulting viral supermatant was used to transduce ITEK293T cells, which were then subsequently selected with puromycin to generate a stable cell line.
HTEK293T cells carrying the ATF4 luciferase reporter were plated on polylysine coated 384-well plates (Greiner Bio-one) at 30,000 cells per well. Cells were treated the next day with 1 μg/mL tunicamycin and 200 nM of a compound of Formula (I) for 7 hours. Luminescence was measured using One Glo (Promega) as specified by the manufacturer. Cells were maintained in DMEM with L-glutamine supplemented with 10% heat-inactivated FBS (Gibco) and Antibiotic-Antimycotic solution (Gibco).
Table 2 below summarizes the EC50 data obtained using the ATF4-Luc assay for exemplary compounds of the invention.

| SMILES | pEC50 |
| --- | --- |
| CN(C(=O)c1cc(C(F)F)no1)C12CCC(NC(=O)COc3ccc(Cl)c(F)c3)(CC1)[C@@H](O)C2 [Compound 967, N-{(3S)-4-[2-(4-chloro-3-fluorophenoxy)acetamido]-3-hydroxybicyclo[2.2.2]octan-1-yl}-3-(difluoromethyl)-N-methyl-1,2-oxazole-5-carboxamide] | 5.70 to 6.00 |
| Cc1csc(C(=O)NC23CCC(NC(=O)COc4ccc(Cl)cc4)(CC2)[C@@H](O)C3)n1 [Compound 1064, N-{(3S)-4-[2-(4-chlorophenoxy)acetamido]-3-hydroxybicyclo[2.2.2]octan-1-yl}-4-methyl-1,3-thiazole-2-carboxamide] | 6.00 to 6.60 |
| COCc1ccc(C(=O)NC23CC(NC(=O)COc4ccc(Cl)c(F)c4)(C2)C3)cn1 [Compound 1090, N-{3-[2-(4-chloro-3-fluorophenoxy)acetamido]bicyclo[1.1.1]pentan-1-yl}-6-(methoxymethyl)pyridine-3-carboxamide] | 6.00 to 6.60 |
| Cc1oc(-c2ccccc2)cc1C(=O)NC12CCC(NC(=O)COc3ccc(Cl)c(F)c3)(CC1)[C@@H](O)C2 [Compound 1021, N-{(3S)-4-[2-(4-chloro-3-fluorophenoxy)acetamido]-3-hydroxybicyclo[2.2.2]octan-1-yl}-2-methyl-5-phenylfuran-3-carboxamide] | > 7.30 |
| COc1ccnc(C(=O)NC23CCC(NC(=O)COc4ccc(Cl)c(F)c4)(CC2)C(O)C3)c1 (centres unmarked) [Compound 924, N-{4-[2-(4-chloro-3-fluorophenoxy)acetamido]-3-hydroxybicyclo[2.2.2]octan-1-yl}-4-methoxypyridine-2-carboxamide] | 5.70 to 6.00 |
| O=C(COc1ccc(Cl)c(F)c1)NC12CCC(NC(=O)c3cc4cc(Cl)ccc4o3)(CC1)C[C@@H]2O [Compound 1077, 5-chloro-N-{(3S)-4-[2-(4-chloro-3-fluorophenoxy)acetamido]-3-hydroxybicyclo[2.2.2]octan-1-yl}-1-benzofuran-2-carboxamide] | > 7.30 |
| Cc1nc(C(=O)NC23CC(NC(=O)COc4ccc(Cl)c(F)c4)(C2)C3)n(C)n1 [Compound 1067, N-{3-[2-(4-chloro-3-fluorophenoxy)acetamido]bicyclo[1.1.1]pentan-1-yl}-1,3-dimethyl-1H-1,2,4-triazole-5-carboxamide] | 6.60 to 7.30 |
| O=C(NC12CC(NC(=O)c3cnc(-c4ccccc4)o3)(C1)C2)c1cnc(C(F)F)cn1 [Compound 1058, 5-(difluoromethyl)-N-{3-[(2-phenyl-1,3-oxazole-5-carbonyl)amino]bicyclo[1.1.1]pentan-1-yl}pyrazine-2-carboxamide] | 6.60 to 7.30 |
| O=C(COc1ccc(Cl)c(Cl)c1)NC12CCC(NC(=O)c3ccc(C(F)F)nc3)(CC1)C[C@@H]2O [Compound 987, N-{(3S)-4-[2-(3,4-dichlorophenoxy)acetamido]-3-hydroxybicyclo[2.2.2]octan-1-yl}-6-(difluoromethyl)pyridine-3-carboxamide] | > 7.30 |
| O=C(NC12CC(NC(=O)c3cnc(-c4ccccc4)o3)(C1)C2)c1cnc(-c2ccccc2)o1 [Compound 1057, N,N′-(bicyclo[1.1.1]pentane-1,3-diyl)bis(2-phenyl-1,3-oxazole-5-carboxamide)] | > 7.30 |
| O=C(COc1ccc(Cl)c(F)c1)NC12CCC(NC(=O)c3cnc(C4CC4)o3)(CC1)CC2 [Compound 989, N-{4-[2-(4-chloro-3-fluorophenoxy)acetamido]bicyclo[2.2.2]octan-1-yl}-2-cyclopropyl-1,3-oxazole-5-carboxamide] | 6.00 to 6.60 |
| O=C(COc1ccc(Cl)c(Cl)c1)NC12CC(NC(=O)c3cnc(C(F)(F)F)o3)(C1)C2 [Compound 1043, N-{3-[2-(3,4-dichlorophenoxy)acetamido]bicyclo[1.1.1]pentan-1-yl}-2-(trifluoromethyl)-1,3-oxazole-5-carboxamide] | 6.60 to 7.30 |
| O=C(COc1ccc(Cl)c(Cl)c1)NC12CCC(NC(=O)c3ccc(OC(F)(F)F)cn3)(CC1)C[C@@H]2O [Compound 1024, N-{(3S)-4-[2-(3,4-dichlorophenoxy)acetamido]-3-hydroxybicyclo[2.2.2]octan-1-yl}-5-(trifluoromethoxy)pyridine-2-carboxamide] | > 7.30 |
| O=C(COc1ccc(Cl)c(F)c1)NC12CC(NC(=O)c3cc(F)c(F)cc3NCCO)(C1)C2 [Compound 1060, N-{3-[2-(4-chloro-3-fluorophenoxy)acetamido]bicyclo[1.1.1]pentan-1-yl}-4,5-difluoro-2-[(2-hydroxyethyl)amino]benzamide] | 6.00 to 6.60 |
| O=C(COc1ccc(Cl)c(F)c1)NC12CCC(NC(=O)c3ccc4c(c3)OC(F)(F)O4)(CC1)NC2=O [Compound 1047, N-{4-[2-(4-chloro-3-fluorophenoxy)acetamido]-3-oxo-2-azabicyclo[2.2.2]octan-1-yl}-2,2-difluoro-2H-1,3-benzodioxole-5-carboxamide] | < 5.70 |
| CC(C)c1cc(C(=O)NC23CCC(NC(=O)COc4ccc(Cl)c(Cl)c4)(CC2)[C@@H](O)C3)on1 [Compound 1012, N-{(3S)-4-[2-(3,4-dichlorophenoxy)acetamido]-3-hydroxybicyclo[2.2.2]octan-1-yl}-3-(propan-2-yl)-1,2-oxazole-5-carboxamide] | > 7.30 |
| O=C(COc1ccc(Cl)c(F)c1)NC12CCC(NC(=O)c3ccc4cc(F)ccc4n3)(CC1)C[C@@H]2O [Compound 998, N-{(3S)-4-[2-(4-chloro-3-fluorophenoxy)acetamido]-3-hydroxybicyclo[2.2.2]octan-1-yl}-6-fluoroquinoline-2-carboxamide] | > 7.30 |
| O=C(COc1ccc2c(c1)OC(F)(F)O2)NC12CCC(NC(=O)c3cc(C(F)F)no3)(CC1)C[C@@H]2O [Compound 1095, N-[(3S)-4-{2-[(2,2-difluoro-2H-1,3-benzodioxol-5-yl)oxy]acetamido}-3-hydroxybicyclo[2.2.2]octan-1-yl]-3-(difluoromethyl)-1,2-oxazole-5-carboxamide] | 6.60 to 7.30 |
| O=C(COc1cccc(Cl)c1)NC12CCC(NC(=O)c3cc(C(F)F)no3)(CC1)C[C@@H]2O [Compound 1072, N-{(3S)-4-[2-(3-chlorophenoxy)acetamido]-3-hydroxybicyclo[2.2.2]octan-1-yl}-3-(difluoromethyl)-1,2-oxazole-5-carboxamide] | 6.60 to 7.30 |
| O=C(COc1ccc(Cl)c(F)c1)NC12CCC(NC(=O)c3ccc(OC(F)(F)F)cn3)(CC1)CC2 [Compound 997, N-{4-[2-(4-chloro-3-fluorophenoxy)acetamido]bicyclo[2.2.2]octan-1-yl}-5-(trifluoromethoxy)pyridine-2-carboxamide] | 6.60 to 7.30 |
| O=C(COc1ccc(Cl)c(F)c1)NC12CCC(NC(=O)c3cc(C(F)F)no3)(CC1)NC2=O [Compound 1050, N-{4-[2-(4-chloro-3-fluorophenoxy)acetamido]-3-oxo-2-azabicyclo[2.2.2]octan-1-yl}-3-(difluoromethyl)-1,2-oxazole-5-carboxamide] | < 5.70 |
| O=C(COc1ccc(Cl)c(Cl)c1)NC12CC(NC(=O)c3cc(O)c4cc(Cl)ccc4n3)(C1)C2 [Compound 971, 6-chloro-N-{3-[2-(3,4-dichlorophenoxy)acetamido]bicyclo[1.1.1]pentan-1-yl}-4-hydroxyquinoline-2-carboxamide] | > 7.30 |
| CCc1cncc(C(=O)NC23CC(NC(=O)COc4ccc(Cl)c(Cl)c4)(C2)C3)c1 [Compound 949, N-{3-[2-(3,4-dichlorophenoxy)acetamido]bicyclo[1.1.1]pentan-1-yl}-5-ethylpyridine-3-carboxamide] | > 7.30 |
| O=C(COc1ccc(Cl)c(F)c1)NC12CCC(NC(=O)c3cnc4cc(F)ccc4n3)(CC1)[C@@H](O)C2 [Compound 950, N-{(2S)-4-[2-(4-chloro-3-fluorophenoxy)acetamido]-2-hydroxybicyclo[2.2.2]octan-1-yl}-6-fluoroquinoxaline-2-carboxamide] | > 7.30 |
| N#Cc1cnccc1NC12CC(NC(=O)COc3ccc(Cl)c(F)c3)(C1)C2 [Compound 953, 2-(4-chloro-3-fluorophenoxy)-N-{3-[(3-cyanopyridin-4-yl)amino]bicyclo[1.1.1]pentan-1-yl}acetamide] | 6.60 to 7.30 |
| O=C(COc1ccc(Cl)c(F)c1)NC12CCC(NC(=O)c3cc(-c4ccccc4)[nH]n3)(CC1)C[C@@H]2O [Compound 1022, N-{(3S)-4-[2-(4-chloro-3-fluorophenoxy)acetamido]-3-hydroxybicyclo[2.2.2]octan-1-yl}-5-phenyl-1H-pyrazole-3-carboxamide] | > 7.30 |
| N#Cc1ccc(C(=O)NC23CCC(NC(=O)COc4ccc(Cl)c(Cl)c4)(CC2)[C@@H](O)C3)nc1 [Compound 1033, 5-cyano-N-{(3S)-4-[2-(3,4-dichlorophenoxy)acetamido]-3-hydroxybicyclo[2.2.2]octan-1-yl}pyridine-2-carboxamide] | > 7.30 |
| O=C(COc1ccc(Cl)c(F)c1)NC12CCC(NC(=O)c3cc(CO)ccn3)(C1)C2 [Compound 333, N-{4-[2-(4-chloro-3-fluorophenoxy)acetamido]bicyclo[2.1.1]hexan-1-yl}-4-(hydroxymethyl)pyridine-2-carboxamide] | 5.70 to 6.00 |
| O=C(COc1ccc(Cl)c(Cl)c1)NC12CCC(NC(=O)c3ccc(N4CCCC4)cn3)(CC1)C[C@@H]2O [Compound 1014, N-{(3S)-4-[2-(3,4-dichlorophenoxy)acetamido]-3-hydroxybicyclo[2.2.2]octan-1-yl}-5-(pyrrolidin-1-yl)pyridine-2-carboxamide] | < 5.70 |
